Experimental data published in patent US12077503B2, “Substituted cyclic amides and their use as herbicides” (FMC CORPORATION, priority 2015, dated 2024).

Legend:
Type in all cases: in vivo
[1] = system: ryegrass, Italian (Italian ryegrass, Lolium multiflorum); test: Test A postemergence; conditions: Lolium multiflorum, post-emergence, 240 h, Postemergence, read-out: Ryegrass, Italian plant response rating (0 to 100 scale)
How it was run: (§1)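 Preemergence directed soil spray on seeded pots, or postemergence application to plants 2–10 cm, one- to two-leaf. Solvent mixture non-phytotoxic, with surfactant. Scored ~10 d later, visually, 0–100 vs untreated.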

[2] = system: pigweed (Amaranthus retroflexus); test: Test A postemergence; conditions: Amaranthus retroflexus, post-emergence, 240 h, Postemergence, read-out: Pigweed plant response rating (0 to 100 scale)
How it was run: as §1

[3] = system: wheat (Triticum aestivum); test: Test A postemergence; conditions: Triticum aestivum, post-emergence, 240 h, Postemergence, read-out: Wheat plant response rating (0 to 100 scale)
How it was run: as §1

Kochia (Kochia scoparia) [4] = test: Test A postemergence; conditions: Bassia scoparia, post-emergence, 240 h, Postemergence, read-out: Kochia plant response rating (0 to 100 scale)
How it was run: as §1

[5] = system: barnyardgrass (Echinochloa crus-galli); test: Test A postemergence; conditions: Echinochloa crus-galli, post-emergence, 240 h, Postemergence
How it was run: as §1

[6] = system: blackgrass (Alopecurus myosuroides); test: Test A postemergence; conditions: Alopecurus myosuroides, post-emergence, 240 h, Postemergence, read-out: Blackgrass plant response rating (0 to 100 scale)
How it was run: as §1

[7] = system: ragweed (common ragweed, Ambrosia elatior); test: Test A postemergence; conditions: Ambrosia artemisiifolia, post-emergence, 240 h, Postemergence, read-out: Ragweed plant response rating (0 to 100 scale)
How it was run: as §1

corn (Zea mays) = test: Test A postemergence; conditions: Zea mays, post-emergence, 240 h, Postemergence, read-out: Corn plant response rating (0 to 100 scale)
How it was run: as §1

[8] = system: giant foxtail (Setaria faberii); test: Test A postemergence; conditions: Setaria faberi, post-emergence, 240 h, Postemergence, read-out: Foxtail, Giant plant response rating (0 to 100 scale)
How it was run: as §1

[9] = system: ducksalad (Heteranthera limosa); test: Test B flooded paddy test; conditions: Heteranthera limosa, 360 h, Flood, 250 g ai/ha; visually evaluated after 13 to 15 d; read-out: Plant response rating, Ducksalad (0 to 100 scale where 0 is no effect and 100 is complete control)
How it was run: (§2)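 Evaluation by eye, against controls, occurred 13–15 d post-treatment in a greenhouse, using a 0 (no effect) to 100 (complete control) scale. Application was into the paddy water, 3 cm deep over the soil, on 2-leaf plants.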

[10] = system: barnyardgrass (Echinochloa crus-galli); test: Test B flooded paddy test; conditions: Echinochloa crus-galli, 360 h, Flood, 250 g ai/ha; visually evaluated after 13 to 15 d; read-out: Plant response rating, Barnyardgrass (0 to 100 scale where 0 is no effect and 100 is complete control)
How it was run: as §2

[11] = system: sedge, umbrella (small-flower umbrella sedge, Cyperus difformis); test: Test B flooded paddy test; conditions: Cyperus difformis, 360 h, Flood, 250 g ai/ha; visually evaluated after 13 to 15 d; read-out: Plant response rating, Sedge, Umbrella (0 to 100 scale where 0 is no effect and 100 is complete control)
How it was run: as §2

rice (Oryra sativa) = test: Test B flooded paddy test; conditions: Oryza sativa, 360 h, Flood, 250 g ai/ha; visually evaluated after 13 to 15 d; read-out: Plant response rating, Rice (0 to 100 scale where 0 is no effect and 100 is complete control)
How it was run: as §2

[12] = system: ryegrass, Italian (Italian ryegrass, Lolium multiflorum); test: Test A preemergence; conditions: Lolium multiflorum, pre-emergence, 240 h, Preemergence
How it was run: as §1

[13] = system: pigweed (Amaranthus retroflexus); test: Test A preemergence; conditions: Amaranthus retroflexus, pre-emergence, 240 h, Preemergence
Kochia (Kochia scoparia) [14] = test: Test A preemergence; conditions: Bassia scoparia, pre-emergence, 240 h, Preemergence
How it was run: as §1

[15] = system: barnyardgrass (Echinochloa crus-galli); test: Test A preemergence; conditions: Echinochloa crus-galli, pre-emergence, 240 h, Preemergence
How it was run: as §1

[16] = system: ragweed (common ragweed, Ambrosia elatior); test: Test A preemergence; conditions: Ambrosia artemisiifolia, pre-emergence, 240 h, Preemergence
How it was run: as §1

[17] = system: giant foxtail (Setaria faberii); test: Test A preemergence; conditions: Setaria faberi, pre-emergence, 240 h, Preemergence
How it was run: as §1

[18] = 125 g ai/ha, visual rating about 10 d after treatment
[19] = 31 g ai/ha, 0 is no effect, 100 is complete control

With `Cc1ccncc1NC(=O)[C@H]1C(=O)N(C)C[C@@H]1c1ccc2c(c1)OC(F)(F)O2` [Compound 1351] the pest or weed control at 125 g/ha [1, 18] was 0%, the pest or weed control at 31 g/ha [1, 19] was 0% and the pest or weed control at 125 g/ha [2, 18] was 0%. The pest or weed control at 31 g/ha [2, 19] was 0%, the plant injury at 125 g/ha [3, 18] was 0% and the plant injury at 31 g/ha [3, 19] was 0%. It also gave a pest or weed control at 125 g/ha (Kochia (Kochia scoparia) [4]; [18]) of 0%, a pest or weed control at 31 g/ha (Kochia (Kochia scoparia) [4]; [19]) of 0% and a pest or weed control at 125 g/ha ([5]; 125 g ai/ha, visual rating about 10 d after treatment, read-out: Barnyardgrass plant response rating (0 to 100 scale, 0 no effect, 100 complete control)) of 0%. It also gave a pest or weed control at 31 g/ha ([5]; 31 g ai/ha, 0 is no effect, 100 is complete control, read-out: Barnyardgrass plant response rating (0 to 100 scale)) of 0%, a pest or weed control at 125 g/ha [6, 18] of 0% and a pest or weed control at 31 g/ha [6, 19] of 0%. The pest or weed control at 125 g/ha [7, 18] was 0%, the pest or weed control at 31 g/ha [7, 19] was 0% and the plant injury at 125 g/ha (corn (Zea mays); [18]) was 0%. The plant injury at 31 g/ha (corn (Zea mays); [19]) was 0%, the pest or weed control at 125 g/ha [8, 18] was 0% and the pest or weed control at 31 g/ha [8, 19] was 0%. The pest or weed control at 250 g/ha [9] was 40%, the pest or weed control at 250 g/ha [10] was 0% and the pest or weed control at 250 g/ha [11] was 0%. For the same compound, the pest or weed control at 250 g/ha (rice (Oryra sativa)) was 0%, the pest or weed control at 31 g/ha ([12]; 31 g ai/ha, 0 to 100 scale where 0 is no effect and 100 is complete control, read-out: Ryegrass, Italian plant response rating) was 0% and the pest or weed control at 125 g/ha ([12]; 125 g ai/ha, 0 to 100 scale (0 no effect, 100 complete control), read-out: Plant response rating, Ryegrass, Italian) was 0%. The pest or weed control at 31 g/ha ([13]; 31 g ai/ha, 0 to 100 scale where 0 is no effect and 100 is complete control, read-out: Pigweed plant response rating) was 0%, the pest or weed control at 125 g/ha ([13]; 125 g ai/ha, 0 to 100 scale (0 no effect, 100 complete control), read-out: Plant response rating, Pigweed) was 0% and the pest or weed control at 31 g/ha (Kochia (Kochia scoparia) [14]; 31 g ai/ha, 0 to 100 scale where 0 is no effect and 100 is complete control, read-out: Kochia plant response rating) was 0%. For the same compound, the pest or weed control at 125 g/ha (Kochia (Kochia scoparia) [14]; 125 g ai/ha, 0 to 100 scale (0 no effect, 100 complete control), read-out: Plant response rating, Kochia) was 0%, the pest or weed control at 31 g/ha ([15]; 31 g ai/ha, 0 to 100 scale where 0 is no effect and 100 is complete control, read-out: Barnyardgrass plant response rating) was 0% and the pest or weed control at 125 g/ha ([15]; 125 g ai/ha, 0 to 100 scale (0 no effect, 100 complete control), read-out: Plant response rating, Barnyardgrass) was 0%. For the same compound, the pest or weed control at 31 g/ha ([16]; 31 g ai/ha, 0 to 100 scale where 0 is no effect and 100 is complete control, read-out: Ragweed plant response rating) was 0%, the pest or weed control at 125 g/ha ([16]; 125 g ai/ha, 0 to 100 scale (0 no effect, 100 complete control), read-out: Plant response rating, Ragweed) was 0% and the pest or weed control at 31 g/ha ([17]; 31 g ai/ha, 0 to 100 scale where 0 is no effect and 100 is complete control, read-out: Foxtail, Giant plant response rating) was 0%. It also gave a pest or weed control at 125 g/ha ([17]; 125 g ai/ha, 0 to 100 scale (0 no effect, 100 complete control), read-out: Plant response rating, Foxtail, Giant) of 0%.
